Tests used:
recombinant mTOR [1] = biological target: T1, recombinant mTOR (Homo sapiens, UniProt P42345); assay: In Vitro mTOR Kinase Assay, Test (a)(i) (AlphaScreen); assay type: biochemical; conditions: read-out: IC50 versus mTOR kinase
Description: (a)(i) In Vitro mTOR Kinase Assay
(§1) The assay used AlphaScreen technology (Gray et al., Analytical Biochemistry, 2003, 313: 234-245) to determine the ability of test compounds to inhibit phosphorylation by recombinant mTOR.
The HEK293 FLAG-tagged mTOR (1362-2549) stable cell line was routinely maintained at 37° C. with 5% CO2 up to a confluency of 70-90% in Dulbecco's modified Eagle's growth medium (DMEM; Invitrogen Limited, Paisley, UK Catalogue No. 41966-029) containing 10% heat-inactivated foetal calf serum (FCS; Sigma, Poole, Dorset, UK, Catalogue No. F0392), 1% L-glutamine (Gibco, Catalogue No. 25030-024) and 2 mg/ml Geneticin (G418 sulfate; Invitrogen Limited, UK Catalogue No. 10131-027). […]
Each reaction was stopped by the addition of 10 μl of a mixture of EDTA (50 mM), bovine serum albumin (BSA; 0.5 mg/mL) and Tris-HCl pH7.4 buffer (50 mM) containing p70 S6 Kinase (T389) 1A5 Monoclonal Antibody (Cell Signalling Technology, Catalogue No. 9206B) and AlphaScreen Streptavidin donor and Protein A acceptor beads (200 ng; Perkin Elmer, Catalogue No. 6760002B and 6760137R respectively) were added and the assay plates were left for about 20 hours at room temperature in the dark. The resultant signals arising from laser light excitation at 680 nm were read using a Packard Envision instrument. […]
mTOR enzyme inhibition for a given test compound was expressed as an IC50 value.

recombinant mTOR [2] = biological target: T1, recombinant mTOR; assay: In Vitro mTOR Kinase Assay (Echo), Test (a)(ii) (AlphaScreen); assay type: biochemical; conditions: Echo acoustic dispensing
Description: (a)(ii) In Vitro mTOR Kinase Assay (Echo)
as §1
The HEK293 FLAG-tagged mTOR (1362-2549) stable cell line was routinely maintained at 37° C. with 5% CO2 up to a confluency of 70-90% in Dulbecco's modified Eagle's growth medium (DMEM; Invitrogen Limited, Paisley, UK Catalogue No. 41966-029) containing 10% heat-inactivated foetal calf serum (FCS; Sigma, Poole, Dorset, UK, Catalogue No. F0392), 1% L-glutamine (Gibco, Catalogue No. 25030-024) and 2 mg/ml Geneticin (G418 sulfate; Invitrogen Limited, UK Catalogue No. 10131-027). Following expression in the mammalian HEK293 cell line, expressed protein was purified using the FLAG epitope tag using standard purification techniques.
Aliquots ([…]) of each compound dilution were acoustically […] using a Labcyte Echo 550 into a well of a Greiner 384-well low volume (LV) white polystyrene plate (Greiner Bio-one). A […] mixture of recombinant purified mTOR enzyme, 1 μM biotinylated peptide substrate (Biotin-Ahx-[…]NH2; Bachem UK Ltd), ATP (20 μM) and a buffer solution [comprising Tris-HCl pH7.4 buffer (50 mM), EGTA (0.1 mM), bovine serum albumin (0.5 mg/mL), DTT (1.25 mM) and manganese chloride (10 mM)] was incubated at room temperature for […].
These assay solutions were incubated for 2 hours at room temperature.
Each reaction was stopped by the addition of […] of a mixture of EDTA (50 mM), bovine serum albumin (BSA; 0.5 mg/mL) and Tris-HCl pH7.4 buffer (50 mM) containing
p70 S6 Kinase (T389) 1A5 Monoclonal Antibody (Cell Signalling Technology, Catalogue No. 9206B) and AlphaScreen Streptavidin donor and Protein A acceptor beads (200 ng; Perkin Elmer, Catalogue No. 6760002B and 6760137R respectively) were added and the assay plates were left overnight at room temperature in the dark. The resultant signals arising from laser light excitation at 680 nm were read using a Packard Envision instrument.
The phosphorylated biotinylated peptide that is associated with AlphaScreen Streptavidin donor beads forms a complex with the p70 S6 Kinase (T389) 1A5 Monoclonal Antibody that is associated with Alphascreen Protein A acceptor beads. Upon laser light excitation at 680 nm, the donor bead : acceptor bead complex produces a signal that can be measured. Accordingly, the presence of mTOR kinase activity results in an assay signal. In the presence of an mTOR kinase inhibitor, signal strength is reduced. mTOR enzyme inhibition for a given test compound was expressed as an IC50 value.

T1 sequence (P42345 1362-2549): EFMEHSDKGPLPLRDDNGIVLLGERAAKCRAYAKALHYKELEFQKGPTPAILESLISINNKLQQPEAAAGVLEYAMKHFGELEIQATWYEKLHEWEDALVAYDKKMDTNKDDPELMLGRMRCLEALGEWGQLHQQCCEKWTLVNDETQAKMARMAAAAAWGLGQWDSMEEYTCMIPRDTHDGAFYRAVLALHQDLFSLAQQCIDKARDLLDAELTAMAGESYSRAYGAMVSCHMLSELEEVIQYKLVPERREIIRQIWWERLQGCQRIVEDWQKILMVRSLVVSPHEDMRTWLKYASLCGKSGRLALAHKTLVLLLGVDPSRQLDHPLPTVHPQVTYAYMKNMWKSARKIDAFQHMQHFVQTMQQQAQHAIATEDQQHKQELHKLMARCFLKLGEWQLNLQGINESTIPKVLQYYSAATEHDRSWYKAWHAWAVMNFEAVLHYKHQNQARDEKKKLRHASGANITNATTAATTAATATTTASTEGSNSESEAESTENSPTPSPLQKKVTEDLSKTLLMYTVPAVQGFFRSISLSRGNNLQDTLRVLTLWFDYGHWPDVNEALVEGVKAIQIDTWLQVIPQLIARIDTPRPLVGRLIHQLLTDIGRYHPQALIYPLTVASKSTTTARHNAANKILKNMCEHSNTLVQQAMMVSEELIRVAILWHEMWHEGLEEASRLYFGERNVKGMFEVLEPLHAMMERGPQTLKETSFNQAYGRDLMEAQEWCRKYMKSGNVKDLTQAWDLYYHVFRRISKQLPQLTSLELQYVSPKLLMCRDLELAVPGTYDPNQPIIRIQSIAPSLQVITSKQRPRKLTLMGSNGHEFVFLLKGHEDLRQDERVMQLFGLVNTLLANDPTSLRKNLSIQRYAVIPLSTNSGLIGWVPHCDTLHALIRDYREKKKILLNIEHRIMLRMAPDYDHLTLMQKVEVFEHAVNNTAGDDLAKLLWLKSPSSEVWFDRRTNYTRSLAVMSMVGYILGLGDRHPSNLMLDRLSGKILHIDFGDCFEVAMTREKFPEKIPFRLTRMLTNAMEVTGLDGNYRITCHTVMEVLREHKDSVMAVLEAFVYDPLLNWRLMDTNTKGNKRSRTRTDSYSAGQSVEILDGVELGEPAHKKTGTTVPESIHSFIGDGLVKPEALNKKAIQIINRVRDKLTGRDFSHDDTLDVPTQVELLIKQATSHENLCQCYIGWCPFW

IC50 (recombinant mTOR [1]): 550 nM | IC50 (recombinant mTOR [2]): 81.6 nM
Compound: C[C@H]1COCCN1c1cc(CS(C)(=O)=O)nc(-c2ccc(NC(=S)Nc3ccccc3)cc2)n1 [Example 1b, 1-[4-[4-[(3S)-3-methylmorpholin-4-yl]-6-(methylsulfonylmethyl)pyrimidin-2-yl]phenyl]-3-phenyl-thiourea]

Reference: patent publication US8138183B2, “Morpholino pyrimidine derivatives used in diseases linked to mTOR kinase and/or PI3K” (AstraZeneca AB, priority 2007, dated 2012)
